In paper PMC8960621, “Solution speciation and human serum protein binding of indium(III) complexes of 8-hydroxyquinoline, deferiprone and maltol” (Journal of Biological Inorganic Chemistry, 2022):

How the values were obtained:
[1] = biological target: T1, human serum albumin (HSA) (Homo sapiens, UniProt P02768); parameters: method as in PMID 25398250; details: cited from earlier work
T1 construct: purchased Sigma-Aldrich A8763

[2] = parameters: method as in PMID 25398250; details: same LMM competitors in tenfold excess, investigated separately; cited from earlier work
apo-transferrin (apoTf) = biological target: T2, apo-transferrin (apoTf) (Homo sapiens, UniProt P02787); details: similar conditions; cited from earlier work
T2 construct: purchased Sigma-Aldrich T2036

[3] = parameters: method as in PMID 23089600; details: 10 μM, pH 7.4; cited from earlier work
apoTf [4] = biological target: T3, apoTf (Homo sapiens, UniProt P02787); assay: apoTf fluorescence quenching; format: binding; details: λEM = 330 nm
T3 construct: purchased Sigma-Aldrich T2036
Protocol: Fluorescence quenching is a convenient technique to study the binding of metal ions at the iron-binding sites of apoTf since it results in reduced fluorescence intensity of Tf. Batch samples containing 1 μM apoTf and various amounts of In(III) compounds were prepared. […] The partial (and not complete) quenching of apoTf can be explained by the presence of numerous Tyr (26) and Trp (8) residues in the protein among which only a few are affected by the binding of In(III) at the iron-binding sites. Upon addition of InQ3, the quenching curve is more stretched and aims to lower intensities (Fig. 4b). Interaction of the non-dissociated complex InQ3 with apoTf cannot be excluded, the latter proposed interaction is realized via intermolecular binding mode and more likely takes place on site(s) other than the iron-binding pockets (vide infra).
Fluorescence studies were implemented by a Fluoromax (Horiba Jobin Yvon) fluorometer in 1 cm quartz cells. Samples contained 1 μM HSA or (apo)Tf and various protein-to-metal complex (or InCl3) ratios (up to complex/HSA = 1:30) were used. […] Intrinsic fluorescence of complex InQ3 was also followed at λEX = 367 nm, and λEM = 450 – 650 nm. In this setup, the complex concentration was ca. 10 or 20 μM, and protein (HSA, (apo)Tf) concentration was varied between 0 and 130 μM, and residual fluorescence of the proteins were subtracted if it was necessary. […]

[5] = biological target: T1, human serum albumin (HSA); assay: HSA binding by membrane ultrafiltration-UV-vis; details: 2.5 equiv. protein
apoTf [6] = biological target: T3, apoTf; assay: Fluorescence lifetime (TCSPC) of InQ3 in the presence of apoTf; format: binding; details: in the presence of 0.1 – 0.3 equiv. apoTf, after 1 min waiting time
Protocol: Therefore, UV–vis and fluorescence emission spectra of InQ3 were recorded in the presence of increasing amounts of apoTf (Fig. 5a, b). After a short initial phase, the absorbance band of InQ3 is reduced gradually by the addition of the protein, while the development of the new band at lower wavelengths (at ca. 310 nm) refers to the liberation of HQ. Namely, there is a competition for In(III) ion between the ligand and the iron-binding sites of apoTf. Absorbance values depicted at 370 nm and 310 nm (Fig. 5c) saturate roughly to the corresponding values of the free ligand and outline a sigmoidal shape. Fluorescence intensity of the same sample set (Fig. 5b, d) was enhanced and moderately blue shifted (from λmax = 540 nm to 532 nm) until the addition of ca. 0.2 equiv. apoTf. […] Then, by the addition of more apoTf, intensities decreased and λmax shifted further to shorter wavelengths (527 nm). […] This is further supported by fluorescence lifetime measurements; where new lifetime components τ3 = 4.7 ± 0.2 ns and τ4 = 13.8 ± 0.4 ns appeared for InQ3 in the presence of 0.1 – 0.3 equiv. apoTf (after 1 min waiting time). […] Here, the sigmoid shape of the UV–vis absorbance was seen again (Fig. S5) and the shifted inflection point in comparison to the titration with apoTf underlines the lower In(III) binding capacity of Tf. […]

T1 sequence (P02768 25-609): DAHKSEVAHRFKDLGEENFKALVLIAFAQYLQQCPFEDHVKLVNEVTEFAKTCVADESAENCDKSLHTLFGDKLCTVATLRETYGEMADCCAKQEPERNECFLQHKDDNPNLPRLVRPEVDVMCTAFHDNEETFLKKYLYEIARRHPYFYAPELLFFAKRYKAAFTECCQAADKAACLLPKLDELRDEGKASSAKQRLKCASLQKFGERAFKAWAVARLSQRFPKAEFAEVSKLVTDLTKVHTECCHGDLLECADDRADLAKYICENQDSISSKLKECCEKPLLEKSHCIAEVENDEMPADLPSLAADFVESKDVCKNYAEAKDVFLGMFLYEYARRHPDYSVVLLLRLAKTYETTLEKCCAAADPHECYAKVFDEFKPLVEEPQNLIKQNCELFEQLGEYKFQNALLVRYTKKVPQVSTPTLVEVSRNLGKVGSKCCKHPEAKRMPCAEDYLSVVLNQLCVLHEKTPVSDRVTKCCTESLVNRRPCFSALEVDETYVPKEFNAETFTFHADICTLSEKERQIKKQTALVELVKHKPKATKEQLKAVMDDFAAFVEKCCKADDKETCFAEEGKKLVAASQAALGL
T3 sequence (P02787 20-698): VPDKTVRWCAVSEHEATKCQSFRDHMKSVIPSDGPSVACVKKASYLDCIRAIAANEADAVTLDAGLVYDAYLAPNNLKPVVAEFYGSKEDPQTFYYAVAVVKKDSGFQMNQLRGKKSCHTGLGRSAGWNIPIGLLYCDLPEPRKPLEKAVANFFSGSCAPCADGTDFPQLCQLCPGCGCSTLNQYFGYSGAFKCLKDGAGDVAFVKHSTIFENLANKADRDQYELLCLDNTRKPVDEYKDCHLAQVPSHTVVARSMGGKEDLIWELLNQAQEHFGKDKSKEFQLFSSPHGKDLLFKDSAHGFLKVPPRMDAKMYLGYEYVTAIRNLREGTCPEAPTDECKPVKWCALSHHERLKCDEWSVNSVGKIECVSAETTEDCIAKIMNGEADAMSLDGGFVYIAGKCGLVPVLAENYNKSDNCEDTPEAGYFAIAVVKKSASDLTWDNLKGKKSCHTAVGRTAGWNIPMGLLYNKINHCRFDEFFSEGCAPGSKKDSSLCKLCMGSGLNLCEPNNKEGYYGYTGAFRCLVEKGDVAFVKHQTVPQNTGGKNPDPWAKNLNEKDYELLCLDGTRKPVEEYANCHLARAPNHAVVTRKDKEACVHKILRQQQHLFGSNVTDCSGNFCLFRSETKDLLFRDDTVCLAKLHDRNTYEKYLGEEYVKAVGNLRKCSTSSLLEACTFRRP
T2 sequence (P02787 20-698): as above

SMILES: [Ga+3].[O-]c1cccc2cccnc12.[O-]c1cccc2cccnc12.[O-]c1cccc2cccnc12 [GaQ3, Tris(8-Quinolinolato)gallium(III), reference compound]
- logK’ (HSA binding constant) [1]: 4.04
- effect of LMM competitors on the complex [2]: practically not affected
- time of interaction with apoTf (apo-transferrin (apoTf)): ≤ 1 h
- fraction of tris-ligand complex [3]: 86%

SMILES: Cc1c([O-])c(=O)ccn1C.Cc1c([O-])c(=O)ccn1C.Cc1c([O-])c(=O)ccn1C.[In+3] [InD3]
- apoTf emission stabilized at % of the initial intensity (apoTf [4]; 1 μM apoTf, λEX = 280 nm, pH 7.40): ca. 83%
- breakpoint of the quenching curve, complex-to-Tf ratio (apoTf [4]): ca. 2
- In(III) ion bound to the protein (deferiprone liberation) [5]: ca. 7%
- complex bound to HSA [5]: ca. 8%

SMILES: [In+3].[O-]c1cccc2cccnc12.[O-]c1cccc2cccnc12.[O-]c1cccc2cccnc12 [InQ3, Tris(8-Quinolinolato)indium(III)]
- τ3 (apoTf [6]): 4.7 ± 0.2 ns
- τ4 (apoTf [6]): 13.8 ± 0.4 ns
